Experimental data reported in EP2236511A2, “LIGANDS OF ALPHA-ADRENOCEPTORS AND OF DOPAMINE, HISTAMINE, IMIDAZOLINE AND SEROTONIN RECEPTORS AND THE USE THEREOF” (priority 2007, dated 2009).
Read-outs that look alike come from different tables or passages of the source.

Tests used:
human D2S receptor = biological target: T1, human D2S receptor (Homo sapiens, UniProt P14416); test: Radioligand binding to dopamine receptor D2S ([3H] Spiperone, CHO membranes)
T1 construct: expressed in transfected cells; host or cells: CHO
T1 sequence (P14416 1-414 isoform P14416-2): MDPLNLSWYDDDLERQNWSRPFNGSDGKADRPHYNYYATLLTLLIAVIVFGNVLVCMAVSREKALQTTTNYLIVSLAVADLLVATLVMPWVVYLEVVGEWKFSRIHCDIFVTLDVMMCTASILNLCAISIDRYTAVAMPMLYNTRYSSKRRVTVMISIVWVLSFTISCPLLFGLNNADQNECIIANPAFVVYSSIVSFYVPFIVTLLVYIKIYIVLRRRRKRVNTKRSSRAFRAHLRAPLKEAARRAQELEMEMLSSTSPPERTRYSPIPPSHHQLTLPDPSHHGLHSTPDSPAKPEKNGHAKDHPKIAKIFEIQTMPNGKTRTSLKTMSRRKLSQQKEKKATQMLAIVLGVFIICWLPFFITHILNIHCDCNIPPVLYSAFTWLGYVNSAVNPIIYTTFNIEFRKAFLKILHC
From the text: 7-C. […] For this purpose sDNA of human D2S receptor is expressed in CHO cells, as described in [Hayes G, Biden TJ, Selbie LA and Shine J, Structural subtypes of the dopamine D2 receptor are functionally distinct. […] Mol Endocrinol. […] Mol Endocrinol. […] Spiperone is used as positive control.

human 5-HT7 receptor = biological target: T2, human 5-HT7 receptor (Homo sapiens, UniProt P34969); test: Radioligand binding to serotonin receptor 5-HT7 ([3H] Lysergic acid diethylamide, CHO membranes)
T2 construct: expressed in transfected cells; host or cells: CHO
T2 sequence (P34969 whole entry): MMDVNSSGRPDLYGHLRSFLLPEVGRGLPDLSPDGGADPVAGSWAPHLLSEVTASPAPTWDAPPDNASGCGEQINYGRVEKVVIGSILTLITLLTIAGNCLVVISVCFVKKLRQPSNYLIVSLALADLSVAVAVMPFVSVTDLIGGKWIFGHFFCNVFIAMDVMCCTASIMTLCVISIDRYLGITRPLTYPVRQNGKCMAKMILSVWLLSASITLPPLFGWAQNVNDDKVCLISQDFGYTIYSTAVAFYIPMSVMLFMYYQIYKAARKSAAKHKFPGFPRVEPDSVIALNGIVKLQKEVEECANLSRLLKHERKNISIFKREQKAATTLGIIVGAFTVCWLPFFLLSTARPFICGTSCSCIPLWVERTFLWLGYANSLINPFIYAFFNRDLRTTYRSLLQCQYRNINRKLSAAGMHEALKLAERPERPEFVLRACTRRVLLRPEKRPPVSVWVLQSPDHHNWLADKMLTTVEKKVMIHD
From the text: For this purpose sDNA of human 5-HT7 receptor is expressed in CHO cells as it was described in [Shen Y, Monsma FJ Jr, Metcalf MA, Jose PA, Hamblin MW, and Sibley DR. […] J. Biol. Chem. 1993, 268, 18200 - 18204]. […] J. Pharmacol. Exp. Ther. 1994, 268:1403-1410]. […] Methiothepin is used as positive control.

mice = test: Mice Training in Morris Water Maze (Scopolamine); format: in vivo; settings: unitary introduction of active ingredient; figures 10-13
Method: Example 17. Mice Training in Morris Water Maze. A round pool which was filled with water at 20-22°C was used. A round ceramic platform of 14cm height was placed in the pool. Animals's behavior was registered with automated computer videosystem in combination with software package of movement analysis Any-maze (Stoelting Co., US). Before testing mice suitable for training were selected. That was done by placing the platform 1cm above the water level and putting an animal on the platform for 20 seconds. Then the mouse was sunk into the water on the opposite side of the pool, allowed to find the platform and climbed it […] 60 seconds, where it was left for additional 20 seconds. After that the mouse was repeatedly immersed into water on the opposite side of the pool and allowed to look for platform. If it failed in finding the platform within 60 seconds the experimentator helped it to find the platform and climb it. If the mice could not find the platform itself in two consecutive attempts it was excluded from experiment. During the next two days the platform was placed 0.5 centimeter lower the water level. Every day the mice were given four attempts for finding the platform within 60 seconds. The time interval between the attempts was 20 seconds, during which the mice stayed on the platform. Every day before the first attempt mouse was placed on the platform for 20 seconds. The time needed for finding and climbing the platform was registered. The animals were sunk in water in 3 different places on the side of the pool opposite to platform. On each day of two-day testing 35-40 minutes before the beginning of training the mice were injected intraintestinally with physiological solution, Scopolamine or Scopolamine in combination with investigated compound. At least 8 animals were used in each group. On the third day the platform was removed and each animal was placed one time in the pool for a period of 60 seconds. The time each mouse spent in the area where the platform had been located during the previous days was registered. This time interval was regarded as a measure of effectiveness of training fulfilled during the previous two days. The testing was carried out during the day time in isolated laboratory using "white noise" at level of about 70 decibel above the human hearing threshold.

male mice of BALB/c line [1] = test: Passive Avoidance of mice in the Shuttle Chamber, memory disturbed by MK-801; format: in vivo; settings: MK-801 0.1 mg/kg, injected 30 minutes before training; fig. 4-6
Method: Example 15. […] The testing was carried out as in example 14. […] Concurrently, physiological solution of MK-801 in combination with active ingredient 1.9 (1) 1/2NDSA was injected intraintestinally to independent group of mice before training.

male mice of BALB/c line [2] = test: Mice Behavior in the Elevated Plus Maze; format: in vivo; settings: fig. 7-9; compared with Buspirone and Lorazepam
From the text: Example 16. […] The length of each arm of the maze was 30cm, width is 5cm, and height of the walls was 15cm. Two opposite arms were closed from both sides and end faces by transparent walls, the other two arms were lit and opened. A mouse was placed in the center of the maze and for the next five minutes the number of entries into opened and closed arms and the time spent in each type of arms was registered. […] The animals usually avoided opened arms (the preference index is between 0.2 and 0.3). Compounds with tranquilizing action increased this index up to 0.5-0.6 or even more and reduced the number of defecations without changing the overall motion activity of the mice (the total number of their entries to the arms).

male mice of BALB/c line [3] = test: Passive Avoidance of mice in the Shuttle Chamber, memory disturbed by Scopolamine; format: in vivo; settings: Scopolamine 0.3 mg/kg, injected 30 minutes before training; figures 1-3
Method: Example 14. […] A shuttle chamber (Ugo Basile, Italy) consisted of two sections was used. […] The sections were connected through a hole which could be overlapped by a vertical door. The floor was made of transverse metal bars on which DC current impulses could be fed. Experiments were carried out in aged male mice of BALB/c line weighing 20-24 grams.
Each group consisted of at least 8 animals. Animal was placed in light section, and latent period of the first entry into dark chamber was registered. Then the vertical door was closed and the animal was punished by 0.6 mA DC current for 3 seconds. After that it was taken back to its homecage. In 22-24 hours the same animal was placed again in light section of the shuttle chamber and latent period of its first entry into dark section, the total time of its stay in light section, and the number of entries into dark section, were registered. Each monitoring lasted for 5 minutes.
Testing was carried out during the day time in isolated laboratory using white noise at level of about 70 decibel above human hearing threshold.
Scopolamine causes the disturbance of training (memory loss) that results in […].

[4] = read-out: Dopamine receptors, % inhibition D2S

## Cc1ccc2c(c1)[C@@H]1CN(C)CCC[C@@H]1N2CCc1cccnc1 (relative stereo) [1.6.1(1)·3HCl]
Human D2S receptor; [4]
  inhibition at 10 µM: 42%

## Cc1ccc2c(c1)[C@@H]1CN(C)CCC[C@@H]1N2CCc1ccc(C)nc1 (relative stereo) [1.6.1(2)·3HCl]
Human D2S receptor; [4]
  inhibition at 10 µM: 31%
Human 5-HT7 receptor; read-out: 5-HT7 % inhibition
  inhibition at 10 µM: 8%

## Cc1ccc(CCn2c3c(c4cc(C)ccc42)CN(C)CC3)cc1 [1.1.2(1-3), 2,8-dimethyl-5-[2-(4-methylphenyl)-ethyl]-1,2,3,4-tetrahydro-1H-pyrido[4,3-b]indole]
Human 5-HT7 receptor; 10 µM ligand
  5-HT7 % inhibition: 98%

## Cc1ccc2c(c1)c1c(n2CCc2ccccn2)CCN(C)C1 [1.1.2(2-3)·2HCl]
Human D2S receptor; [4]
  inhibition at 3 µM: 77%
mice
  memory disorders caused by Scopolamine (time spent in area of the platform): decreasing memory disorders

## Cc1ccc2c(c1)c1c(n2CCc2ccc(C)nc2)CCN(C)C1 [1.1.2(4-2)·2HCl]
Human D2S receptor; 10 µM ligand
  Dopamine receptors, % inhibition D2S: 80%
Human D2S receptor; Receptor D2S
  Ki: 629 nM
  nH: 0.724
Human 5-HT7 receptor; 10 µM ligand, read-out: 5-HT7 % inhibition
  inhibition at 10 µM: 96%

## Cc1ccc2c(c1)c1c(n2CCc2ccccn2)CCCN(C)C1 [1.2.2(2-2)]
Human 5-HT7 receptor; 10 µM ligand
  5-HT7 % inhibition: 74%

## CN1CCc2c(c3ccccc3n2Cc2ccccc2)C1 [1.9(1)·1/2NDSA, bis-(5-benzyl-2-methyl-2,3,4,5-tetrahydro-1H-pyrido[4,3-b]indole) naphthalene-1,5-disulfonate]
Human D2S receptor; Receptor D2S
  nH: 0.879
Human D2S receptor; [4]
  inhibition at 10 µM: 51%
Male mice of BALB/c line [1]
  memory enhancement disturbed by MK-801: act as nootropic
Male mice of BALB/c line [2]
  Anxiolytic (tranquilizing) action: exhibits anxiolytic (tranquilizing) action
Male mice of BALB/c line [3]
  enhancement of memory disturbed by Scopolamine: nootropic action

## CN1CCc2c(c3ccccc3n2Cc2ccccc2)C1.Cl [1.9(1)·HCl, 5-benzyl-2-methyl-2,3,4,5-tetrahydro-1H-pyrido[4,3-b]indole hydrochloride]
Human 5-HT7 receptor; read-out: 5-HT7 % inhibition
  inhibition at 0.3 µM: 76%
  inhibition at 10 µM: 91%
